From BindingDB's records for patent US20240067631 (Cytokinetics, 2024)

Target: Nicotinamide phosphoribosyltransferase (Homo sapiens, UniProt P43490)
Test: NMN Fluorescence Biochemical Assay
Protocol: Human Recombinant Enzyme Assay: Compounds described herein were assayed for their ability to stimulate the synthesis of nicotinamide mononucleotide (NMN) by the enzyme NAMPT. The human recombinant enzyme assay measures the activation of the enzyme activity by compounds using recombinant enzyme and substrates in a buffered cell-free system. The assay conditions closely mimic cellular environments. Dose responses were measured using an assay to detect the formation of nicotinamide mono-nucleotide. All experiments were performed in the 384-well format. Generally, 0.5 μL of DMSO containing varying concentrations of the test compound was mixed with 10 μL of the enzyme reagent solution. Enzyme reactions were initiated with the addition of 10 μL of a solution containing the substrates. The final assay conditions were as follows: 6 nM human NAMPT, 2.5 mM ATP, […] in 50 mM HEPES, pH 7.2, 1 mM DTT, 1 mM CHAPS 50 mM NaCl, 100 mM MgCl2. Following an incubation of 60 min at ambient temperature, 10 μL of 20% acetophenone in DMSO was added, followed by 10 μL of 2 M KOH and 40 μL of formic acid. The plates were read for fluorescence (Excitation/Emission=355 nm/460 nm) using an EnVision plate reader after 40 mins of incubation at ambient temperature. […]

Sequence of Nicotinamide phosphoribosyltransferase (P43490 whole entry): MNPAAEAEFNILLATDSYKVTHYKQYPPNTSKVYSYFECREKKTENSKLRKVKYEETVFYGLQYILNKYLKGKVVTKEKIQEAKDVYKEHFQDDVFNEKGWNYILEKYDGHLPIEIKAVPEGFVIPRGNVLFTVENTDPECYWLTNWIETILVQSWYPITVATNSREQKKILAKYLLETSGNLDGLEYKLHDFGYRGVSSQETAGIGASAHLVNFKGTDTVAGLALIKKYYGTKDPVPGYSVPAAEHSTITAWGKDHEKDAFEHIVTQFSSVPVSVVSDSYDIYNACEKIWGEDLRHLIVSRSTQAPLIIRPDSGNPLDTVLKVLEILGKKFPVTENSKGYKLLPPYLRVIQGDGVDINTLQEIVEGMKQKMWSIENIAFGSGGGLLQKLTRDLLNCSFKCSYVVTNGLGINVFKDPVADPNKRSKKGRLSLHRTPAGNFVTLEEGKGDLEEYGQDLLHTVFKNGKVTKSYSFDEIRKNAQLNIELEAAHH

EC50 [µM] | SMILES
3.52 | Cc1nc(C(=O)N2CCN(Cc3ccccc3)C(=O)C2)nc(NCCc2cn[nH]c2)c1C [US20240067631, Compound 45]
4.09 | Cc1ccc([C@@H](C)NC(=O)c2nc(C)c(C)c(NCCc3cn[nH]c3)n2)o1 [US20240067631, Compound 101]
